Drawing on patent US20260355212A1 (priority 2022, published 2026), this text covers IC50 for six compounds.

As a reminder, the IC50 is the concentration that inhibits the measured activity by half.

In one test the target is SARS-CoV-1 Mpro (Severe acute respiratory syndrome coronavirus, UniProt P0C6X7). Kind of test: biochemical.
The target of a further test is MERS Mpro (Middle East respiratory syndrome-related coronavirus, UniProt K9N7C7). Kind of test: biochemical. Further details: species or system MERS-CoV.
Sequence of MERS Mpro (K9N7C7 3248-3553 limits assumed): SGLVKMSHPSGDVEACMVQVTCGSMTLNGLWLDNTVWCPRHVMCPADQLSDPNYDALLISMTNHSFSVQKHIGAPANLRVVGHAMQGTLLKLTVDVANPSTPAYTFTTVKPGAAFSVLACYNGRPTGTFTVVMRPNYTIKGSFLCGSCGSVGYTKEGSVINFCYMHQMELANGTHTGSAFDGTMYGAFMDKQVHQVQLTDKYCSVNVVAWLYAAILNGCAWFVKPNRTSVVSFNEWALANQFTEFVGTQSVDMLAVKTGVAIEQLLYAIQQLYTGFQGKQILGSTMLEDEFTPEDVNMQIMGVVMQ
The next test concerns the target HCoV-NL63 Mpro (Human coronavirus NL63, UniProt P0C6X5). Kind of test: HCoV-NL63 Mpro enzymatic inhibition assay (fluorescence). It is filed as biochemical. The method, then:
(§1) The hCoV Mpro are cloned, expressed in E. coli and purified by WuXi AppTec Co., Ltd. The substrate are synthesized by Genscript Biotech.
(§2) Compounds are 3 fold serially diluted for 10 doses and added to an assay plate (384w format) using ECHO, in duplicate wells. The test concentration of test compounds is defined by sponsor. […] For no inhibition control (ZPE, zero percent effect), DMSO is added.
(§3) 25 μL of Mpro proteins are added to the assay plates containing compounds, respectively, using Multidrop. The compounds and Mpro proteins are pre-incubated at room temperature for 30 min. Then 5 µL of Mpro substrates are added to the related assay plates, respectively. Each activity testing point has a relevant background control to normalize the fluorescence interference of compound.
(§4) After 60 min incubation at 30° C., the fluorescence signal (RFU) is detected using a microplate reader M2e (SpectraMax) at Ex/Em=340 nm/490 nm.
(§5) The inhibition activity is calculated using the formula below, IC50 values will be calculated using the Inhibition % data.
(§6) Inhibition %=[(CPD−BGCPD)−(ZPE−BGZPE)/(HPE−BGHPE)−(ZPE−BGZPE)]×[…] • CPD: Signal of test compounds wells, containing compound+enzyme+substrate. • ZPE: Average of signals of zero percent effective control wells, containing enzyme+substrate, no compound. • HPE: Average of signals of hundred percent effect control wells, containing GC376+enzyme+substrate. • BG: Compound background control wells, containing compound+substrate, no enzyme
(§7) IC50 values of compounds are calculated with the GraphPad Prism software using the nonlinear regression model of log(inhibitor) vs. response—Variable slope (four parameters).

The target of a further test is HCoV-OC43 Mpro (Human coronavirus OC43, UniProt P0C6X6). Kind of test: HCoV-OC43 Mpro enzymatic inhibition assay (fluorescence). It counts as biochemical. The method, then:
as §1, §2, §3, §4, §5, §6, §7

The next test deals with HCoV-HKU1 Mpro (Human coronavirus HKU1, UniProt P0C6X2). Kind of test: HCoV-HKU1 Mpro enzymatic inhibition assay (fluorescence). It counts as biochemical. The method, then: as §1, §2, §3, §4, §5, §6, §7
Sequence of HCoV-HKU1 Mpro (P0C6X2 3335-3637 limits assumed): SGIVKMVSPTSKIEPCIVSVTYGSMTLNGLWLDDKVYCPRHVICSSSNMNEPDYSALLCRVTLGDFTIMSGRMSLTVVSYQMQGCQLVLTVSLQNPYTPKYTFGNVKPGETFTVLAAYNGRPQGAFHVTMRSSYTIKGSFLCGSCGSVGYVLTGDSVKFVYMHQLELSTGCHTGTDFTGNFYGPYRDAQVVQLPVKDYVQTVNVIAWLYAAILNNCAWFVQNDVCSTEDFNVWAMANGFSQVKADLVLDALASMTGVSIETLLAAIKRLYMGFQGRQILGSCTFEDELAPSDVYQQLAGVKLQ
In a further test the target is HCoV-229E Mpro (Human coronavirus 229E, UniProt P0C6X1). Kind of test: HCoV-229E Mpro enzymatic inhibition assay (fluorescence). It counts as biochemical. The method, then:
as §1, §2, §3, §4, §5, §6, §7

The target in the next test is SARS-CoV-2 Mpro (Severe acute respiratory syndrome coronavirus 2, UniProt P0DTD1). Kind of test: SARS-CoV-2 Mpro enzymatic inhibition assay (fluorescence). It counts as biochemical. The method, then: as §1
Compounds are 3 fold serially diluted for 10 doses and added to an assay plate (384w format) using ECHO, in duplicate wells. The test concentration of test compounds is defined by sponsor.
25 μL of Mpro proteins are added to the assay plates containing compounds, respectively, using Multidrop. The compounds and Mpro proteins are pre-incubated at room temperature for 30 min. Then 5 µL of Mpro substrates are added to the related assay plates, respectively.
as §4, §5, §7

Like-named read-outs stand apart in the source and are kept apart here.

Sequence of HCoV-NL63 Mpro (P0C6X5 2940-3242 limits assumed): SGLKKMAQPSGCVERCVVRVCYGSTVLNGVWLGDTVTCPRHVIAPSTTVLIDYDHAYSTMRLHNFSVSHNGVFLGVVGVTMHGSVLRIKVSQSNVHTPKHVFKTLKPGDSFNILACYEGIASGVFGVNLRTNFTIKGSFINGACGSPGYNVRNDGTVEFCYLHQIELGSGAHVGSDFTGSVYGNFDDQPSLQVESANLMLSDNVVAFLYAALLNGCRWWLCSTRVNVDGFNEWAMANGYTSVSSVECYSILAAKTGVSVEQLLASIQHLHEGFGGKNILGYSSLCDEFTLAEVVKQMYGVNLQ
Sequence of HCoV-OC43 Mpro (P0C6X6 3247-3549 limits assumed): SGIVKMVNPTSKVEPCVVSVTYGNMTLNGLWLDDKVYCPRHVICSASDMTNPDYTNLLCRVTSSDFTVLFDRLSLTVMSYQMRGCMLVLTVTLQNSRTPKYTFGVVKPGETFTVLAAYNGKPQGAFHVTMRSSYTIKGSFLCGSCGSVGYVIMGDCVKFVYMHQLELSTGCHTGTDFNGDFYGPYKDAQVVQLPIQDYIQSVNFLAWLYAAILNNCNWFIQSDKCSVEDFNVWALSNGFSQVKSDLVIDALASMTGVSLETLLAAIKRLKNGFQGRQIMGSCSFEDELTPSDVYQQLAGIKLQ
Sequence of HCoV-229E Mpro (P0C6X1 2966-3267 limits assumed): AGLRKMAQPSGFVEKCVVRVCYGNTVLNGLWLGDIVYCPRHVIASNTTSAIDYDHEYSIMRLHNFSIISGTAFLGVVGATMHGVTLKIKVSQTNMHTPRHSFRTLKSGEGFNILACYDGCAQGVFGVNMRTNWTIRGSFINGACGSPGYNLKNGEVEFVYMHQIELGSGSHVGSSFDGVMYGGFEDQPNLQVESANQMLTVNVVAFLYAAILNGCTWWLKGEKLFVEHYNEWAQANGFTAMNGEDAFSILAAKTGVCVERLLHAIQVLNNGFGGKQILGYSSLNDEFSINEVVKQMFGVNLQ

Take `CC1(C)[C@@H]2[C@@H](C(=O)N[C@H](C=O)C[C@@H]3CCNC3=O)N(C(=O)c3cc4cc(S(C)(=O)=O)ccc4[nH]3)C[C@@H]21` [Compound 80, (1R,2S,5S)-6,6-Dimethyl-3-(5-(methylsulfonyl)-1H-indole-2-carbonyl)-N—((S)-1-oxo-3-((S)-2-oxopyrrolidin-3-yl)propan-2-yl)-3-azabicyclo[3.1.0]hexane-2-carboxamide]: the IC50 against SARS-CoV-1 Mpro is 75.5 nM; against MERS Mpro it was 384 nM; at HCoV-NL63 Mpro it was 48.2 nM; against HCoV-OC43 Mpro, 63.3 nM; against HCoV-HKU1 Mpro, 22.5 nM; at HCoV-229E Mpro, 28.6 nM. The same compound registered a half-maximal inhibitory concentration (IC50) against SARS-CoV-2 Mpro of 35 nM.
Consider `O=C[C@H](C[C@@H]1CCNC1=O)NC(=O)[C@@H]1C[C@@H]2C[C@@H]2N1C(=O)c1cc2ccccc2[nH]1` [Compound 125, (1S,3S,5S)-2-(1H-Indole-2-carbonyl)-N—((S)-1-oxo-3-((S)-2-oxopyrrolidin-3-yl)propan-2-yl)-2-azabicyclo[3.1.0]hexane-3-carboxamide], for which the half-maximal inhibitory concentration (IC50) was 685 nM at SARS-CoV-1 Mpro; 916 nM on MERS Mpro; 218 nM against HCoV-NL63 Mpro; 284 nM against HCoV-OC43 Mpro; 154 nM on HCoV-HKU1 Mpro; 116 nM against HCoV-229E Mpro. This compound also returned an IC50 against SARS-CoV-2 Mpro of 228 nM.
On to `CO[C@@H]1C[C@@H](C(=O)N[C@H](C=O)C[C@@H]2CCNC2=O)N(C(=O)c2cc3ccccc3[nH]2)C1` [Compound 121, (2S,4R)-1-(1H-Indole-2-carbonyl)-4-methoxy-N—((S)-1-oxo-3-((S)-2-oxopyrrolidin-3-yl)propan-2-yl)pyrrolidine-2-carboxamide], for which the IC50 at SARS-CoV-1 Mpro came out at 294 nM; at MERS Mpro, 2630 nM; against HCoV-NL63 Mpro, 198 nM; at HCoV-OC43 Mpro, 825 nM; against HCoV-HKU1 Mpro it was 546 nM; against HCoV-229E Mpro it was 152 nM. This compound showed a half-maximal inhibitory concentration (IC50) at SARS-CoV-2 Mpro of 159 nM.
For the compound `CC1(C)[C@@H]2[C@@H](C(=O)N[C@H](C=O)C[C@@H]3CCNC3=O)N(C(=O)CC3CCCCC3)C[C@@H]21` [Compound 53, (1R,2S,5S)-3-(2-cyclohexylacetyl)-6,6-dimethyl-N—((S)-1-oxo-3-((S)-2-oxopyrrolidin-3-yl)propan-2-yl)-3-azabicyclo[3.1.0]hexane-2-carboxamide], the IC50 on SARS-CoV-1 Mpro is 45.7 nM; on MERS Mpro, 326 nM; on HCoV-NL63 Mpro, 66.5 nM; on HCoV-OC43 Mpro, 26.3 nM; on HCoV-HKU1 Mpro, 25.6 nM; at HCoV-229E Mpro, 29.7 nM. Also, the IC50 at SARS-CoV-2 Mpro (mean, 25 nM protein, 25 μM substrate, 30 min pre-incubation, 60 min at 30° C., read-out: Mpro_SARS-CoV-2 mean IC50) was 25 nM.
With `CC1(C)[C@@H]2[C@@H](C(=O)N[C@H](C=O)C[C@@H]3CCNC3=O)N(C(=O)c3cc4ccc(Cl)c(F)c4[nH]3)C[C@@H]21` [Compound 21, (1R,2S,5S)-3-(6-chloro-7-fluoro-1H-indole-2-carbonyl)-6,6-dimethyl-N—((S)-1-oxo-3-((S)-2-oxopyrrolidin-3-yl)propan-2-yl)-3-azabicyclo[3.1.0]hexane-2-carboxamide], the IC50 was found to be 27.6 nM at SARS-CoV-1 Mpro; 234 nM at MERS Mpro; 57.7 nM against HCoV-NL63 Mpro; 59.4 nM against HCoV-OC43 Mpro; 38 nM against HCoV-HKU1 Mpro; 22.2 nM at HCoV-229E Mpro. Besides, the IC50 against SARS-CoV-2 Mpro stood at 15.7 nM.
Consider `O=C[C@H](C[C@@H]1CCNC1=O)NC(=O)[C@@H]1CC2(CCC2)CN1C(=O)C1(c2ccccc2)CC1` [Compound 84, (S)—N—((S)-1-Oxo-3-((S)-2-oxopyrrolidin-3-yl)propan-2-yl)-6-(1-phenylcyclopropanecarbonyl)-6-azaspiro[3.4]octane-7-carboxamide], for which the IC50 at SARS-CoV-1 Mpro was determined as 88.3 nM; on MERS Mpro, 703 nM; against HCoV-NL63 Mpro it was 185 nM; against HCoV-OC43 Mpro, 41.2 nM; against HCoV-HKU1 Mpro, 17.3 nM; against HCoV-229E Mpro, 47.6 nM. Also, on SARS-CoV-2 Mpro, the IC50 was 36 nM.
